Source: patent US12441703B2, “Carboxamides as modulators of sodium channels” (VERTEX PHARMACEUTICALS INCORPORATED, priority 2019, dated 2025)

These compounds were tested against human NaV 1.8 (Homo sapiens, UniProt Q9Y5Y9) (assay: E-VIPR assay for detecting and measuring NaV inhibition properties). Conditions: E-VIPR assay conducted in the presence of human serum; HEK cells expressing truncated human NaV 1.8; read-out: IC50.
Chain of human NaV 1.8 (Q9Y5Y9 whole entry, looked up, the tested form may be a part): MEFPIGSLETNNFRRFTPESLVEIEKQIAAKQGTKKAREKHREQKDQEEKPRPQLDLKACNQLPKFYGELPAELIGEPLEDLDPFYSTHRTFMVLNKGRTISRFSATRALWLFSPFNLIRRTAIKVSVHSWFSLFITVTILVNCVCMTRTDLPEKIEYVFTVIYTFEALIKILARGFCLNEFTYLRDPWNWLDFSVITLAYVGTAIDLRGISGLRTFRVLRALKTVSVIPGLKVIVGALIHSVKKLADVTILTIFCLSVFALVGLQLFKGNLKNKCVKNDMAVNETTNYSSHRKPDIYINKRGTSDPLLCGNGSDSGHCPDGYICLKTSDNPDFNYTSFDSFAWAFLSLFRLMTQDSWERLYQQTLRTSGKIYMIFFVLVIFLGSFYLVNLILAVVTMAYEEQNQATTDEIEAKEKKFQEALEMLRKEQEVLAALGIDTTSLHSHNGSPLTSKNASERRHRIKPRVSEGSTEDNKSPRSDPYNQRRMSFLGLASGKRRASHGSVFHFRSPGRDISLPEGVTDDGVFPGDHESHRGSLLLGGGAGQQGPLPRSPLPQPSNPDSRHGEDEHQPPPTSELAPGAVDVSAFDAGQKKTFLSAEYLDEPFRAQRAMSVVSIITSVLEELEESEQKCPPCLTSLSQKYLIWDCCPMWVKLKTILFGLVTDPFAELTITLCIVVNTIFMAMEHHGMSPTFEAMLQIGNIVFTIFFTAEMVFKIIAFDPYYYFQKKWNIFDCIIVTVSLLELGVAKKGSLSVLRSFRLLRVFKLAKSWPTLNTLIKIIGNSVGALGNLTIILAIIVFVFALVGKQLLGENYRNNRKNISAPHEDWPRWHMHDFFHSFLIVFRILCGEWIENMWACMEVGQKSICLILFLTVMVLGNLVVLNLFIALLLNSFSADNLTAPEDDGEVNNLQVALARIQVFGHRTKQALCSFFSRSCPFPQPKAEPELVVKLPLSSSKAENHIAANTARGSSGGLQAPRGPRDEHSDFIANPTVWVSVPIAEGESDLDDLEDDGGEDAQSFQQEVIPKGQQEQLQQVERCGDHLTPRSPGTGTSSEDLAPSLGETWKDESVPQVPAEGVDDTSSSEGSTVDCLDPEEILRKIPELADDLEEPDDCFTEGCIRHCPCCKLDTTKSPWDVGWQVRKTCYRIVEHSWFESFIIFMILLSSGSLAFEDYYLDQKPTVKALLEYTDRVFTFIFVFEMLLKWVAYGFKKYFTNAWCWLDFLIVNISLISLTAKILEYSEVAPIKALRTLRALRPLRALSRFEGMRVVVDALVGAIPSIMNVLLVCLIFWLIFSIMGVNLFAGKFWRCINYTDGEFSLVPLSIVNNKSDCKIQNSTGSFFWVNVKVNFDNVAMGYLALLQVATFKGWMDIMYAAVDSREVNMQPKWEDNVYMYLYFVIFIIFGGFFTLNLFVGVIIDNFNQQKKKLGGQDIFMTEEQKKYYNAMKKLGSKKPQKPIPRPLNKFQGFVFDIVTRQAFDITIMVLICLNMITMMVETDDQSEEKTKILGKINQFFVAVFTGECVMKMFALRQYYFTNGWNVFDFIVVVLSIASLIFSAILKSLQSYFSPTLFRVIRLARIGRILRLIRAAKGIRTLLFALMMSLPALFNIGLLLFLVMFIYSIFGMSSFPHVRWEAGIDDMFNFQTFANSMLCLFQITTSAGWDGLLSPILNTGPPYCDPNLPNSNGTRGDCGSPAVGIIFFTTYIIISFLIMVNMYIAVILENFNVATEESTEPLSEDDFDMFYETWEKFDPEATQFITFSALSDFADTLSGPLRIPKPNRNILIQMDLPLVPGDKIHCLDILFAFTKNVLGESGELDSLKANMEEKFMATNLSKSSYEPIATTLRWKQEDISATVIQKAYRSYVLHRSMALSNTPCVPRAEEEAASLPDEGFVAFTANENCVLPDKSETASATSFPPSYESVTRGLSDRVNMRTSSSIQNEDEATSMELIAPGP
Assay type: cell-based
Outline: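 HEK cells with truncated human NaV1.8 plus KIR2.1 BacMam, hexyl dye loaded 20 min, compound 30 min at room temperature, 11-point 3-fold series […], 0.625% DMSO, with or without human serum. E-VIPR biphasic stimulation at 10 Hz for 10 s; membrane-potential response read as normalized coumarin/oxonol ratio.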
`Cc1cc(Cl)ccc1Oc1ccc(C(F)(F)F)c(C)c1C(=O)Nc1ccc(C(N)=O)nc1` [Compound 233, 5-[[6-(4-chloro-2-methyl-phenoxy)-2-methyl-3-(trifluoromethyl)benzoyl]amino]pyridine-2-carboxamide] was tested, and the IC50 was 1400 nM.
With `Cc1c(C(F)(F)F)ccc(Oc2ccc(Cl)cc2F)c1C(=O)Nc1ccc(C(N)=O)nc1` [Compound 234, 5-[[6-(4-chloro-2-fluoro-phenoxy)-2-methyl-3-(trifluoromethyl)benzoyl]amino]pyridine-2-carboxamide] the IC50 was > 3000 nM.
With `COc1ccc(Oc2ccc(C(F)(F)F)c(C)c2C(=O)Nc2ccc(C(N)=O)nc2)c(Cl)c1` [Compound 235, 5-[[6-(2-chloro-4-methoxy-phenoxy)-2-methyl-3-(trifluoromethyl)benzoyl]amino]pyridine-2-carboxamide] the IC50 was 1400 nM.
`Cc1cc(OC(F)(F)F)ccc1Oc1ccc(C(F)(F)F)c(C)c1C(=O)Nc1ccc(C(N)=O)nc1` [Compound 236, 5-[[2-methyl-6-[2-methyl-4-(trifluoromethoxy)phenoxy]-3-(trifluoromethyl)benzoyl]amino]pyridine-2-carboxamide] was tested, and the IC50 was 170 nM.
For `COc1cc(OC(F)(F)F)ccc1Oc1cc(C(C)(C)C)cc(C)c1C(=O)Nc1ccnc(C(N)=O)c1` [Compound 237, 4-[[4-tert-butyl-2-[2-methoxy-4-(trifluoromethoxy)phenoxy]-6-methyl-benzoyl]amino]pyridine-2-carboxamide], the IC50 was 93 nM.
For `COc1cc(OC(F)(F)F)ccc1Oc1cc(C(C)(C)C)cnc1C(=O)Nc1ccnc(C(N)=O)c1` [Compound 238, 5-tert-butyl-N-(2-carbamoyl-4-pyridyl)-3-[2-methoxy-4-(trifluoromethoxy)phenoxy]pyridine-2-carboxamide], the IC50 was 695 nM.
`Cc1c2c(cc(Oc3ccc(OC(F)(F)F)cc3Cl)c1C(=O)Nc1ccnc(C(N)=O)c1)OC(F)(F)O2` [Compound 239, 4-[[6-[2-chloro-4-(trifluoromethoxy)phenoxy]-2,2-difluoro-4-methyl-1,3-benzodioxole-5-carbonyl]amino]pyridine-2-carboxamide] showed an IC50 of 72 nM.
In the case of `Cc1c2c(cc(Oc3ccc(OC(F)(F)F)cc3Cl)c1C(=O)Nc1ccc(C(N)=O)nc1)OC(F)(F)O2` [Compound 240, 5-[[6-[2-chloro-4-(trifluoromethoxy)phenoxy]-2,2-difluoro-4-methyl-1,3-benzodioxole-5-carbonyl]amino]pyridine-2-carboxamide], the IC50 is reported as 570 nM.
For `Cc1cc(OC(F)(F)F)cc(Oc2ccc(OC(F)(F)F)cc2Cl)c1C(=O)Nc1ccnc(C(N)=O)c1` [Compound 241, 4-[[2-[2-chloro-4-(trifluoromethoxy)phenoxy]-6-methyl-4-(trifluoromethoxy)benzoyl]amino]pyridine-2-carboxamide], the IC50 was 190 nM.
`COc1cc(OC(F)(F)F)ccc1Oc1cc(OC(F)(F)F)cc(C)c1C(=O)Nc1ccnc(C(N)=O)c1` [Compound 242, 4-[[2-[2-methoxy-4-(trifluoromethoxy)phenoxy]-6-methyl-4-(trifluoromethoxy)benzoyl]amino]pyridine-2-carboxamide] gave an IC50 of 13 nM.
In the case of `Cc1cc(OC(F)(F)F)cc(Oc2ccc(OC(F)(F)F)cc2Cl)c1C(=O)Nc1ccc(C(N)=O)nc1` [Compound 243, 5-[[2-[2-chloro-4-(trifluoromethoxy)phenoxy]-6-methyl-4-(trifluoromethoxy)benzoyl]amino]pyridine-2-carboxamide], the IC50 is reported as 1850 nM.
Work on `COc1cc(OC(F)(F)F)ccc1Oc1ccc(C(F)F)c(C)c1C(=O)Nc1ccnc(C(N)=O)c1` [Compound 244, 4-[[3-(difluoromethyl)-6-[2-methoxy-4-(trifluoromethoxy)phenoxy]-2-methyl-benzoyl]amino]pyridine-2-carboxamide] yielded an IC50 of 17 nM.
For `COc1cc(OC(F)(F)F)ccc1Oc1cc(OC(F)(F)F)cc(C)c1C(=O)Nc1ccc(C(N)=O)nc1` [Compound 245, 5-[[2-[2-methoxy-4-(trifluoromethoxy)phenoxy]-6-methyl-4-(trifluoromethoxy)benzoyl]amino]pyridine-2-carboxamide], the IC50 was 333 nM.
`COc1cc(OC(F)(F)F)ccc1Oc1cc(C(F)(F)F)c(C2CC2)nc1C(=O)Nc1ccnc(C(N)=O)c1` [Compound 246, N-(2-carbamoyl-4-pyridyl)-6-cyclopropyl-3-[2-methoxy-4-(trifluoromethoxy)phenoxy]-5-(trifluoromethyl)pyridine-2-carboxamide] gave an IC50 of 140 nM.
Compound `COc1cc(OC(F)(F)F)ccc1Oc1cc(C(F)(F)F)c(C)nc1C(=O)Nc1ccnc(C(N)=O)c1` [Compound 247, N-(2-carbamoyl-4-pyridyl)-3-[2-methoxy-4-(trifluoromethoxy)phenoxy]-6-methyl-5-(trifluoromethyl)pyridine-2-carboxamide] has an IC50 of 190 nM.
`COc1cc(OC(F)(F)F)ccc1Oc1cc(C2CC2)cc(C)c1C(=O)Nc1ccnc(C(N)=O)c1` [Compound 248, 4-[[4-cyclopropyl-2-[2-methoxy-4-(trifluoromethoxy)phenoxy]-6-methyl-benzoyl]amino]pyridine-2-carboxamide] showed an IC50 of 27 nM.
For `NC(=O)c1cc(NC(=O)c2c(Oc3ccc(OC(F)(F)F)cc3O)ccc(C(F)(F)F)c2F)cc[n+]1[O-]` [Compound 249, 4-[[2-fluoro-6-[2-hydroxy-4-(trifluoromethoxy)phenoxy]-3-(trifluoromethyl)benzoyl]amino]-1-oxido-pyridin-1-ium-2-carboxamide], the IC50 was 2930 nM.
For `NC(=O)c1cc(NC(=O)c2c(-c3ccc(OC(F)(F)F)cc3)ccc(C(F)(F)F)c2F)ccn1` [Compound 250, 4-[[2-fluoro-6-[4-(trifluoromethoxy)phenyl]-3-(trifluoromethyl)benzoyl]amino]pyridine-2-carboxamide], the IC50 was > 3000 nM.
In the case of `COc1cc(F)ccc1-c1ccc(C(F)(F)F)c(F)c1C(=O)Nc1ccnc(C(N)=O)c1` [Compound 251, 4-[[2-fluoro-6-(4-fluoro-2-methoxy-phenyl)-3-(trifluoromethyl)benzoyl]amino]pyridine-2-carboxamide], the IC50 is reported as > 3000 nM.
`COc1cc(F)ccc1-c1ccc(C(F)(F)F)cc1C(=O)Nc1ccnc(C(N)=O)c1` [Compound 252, 4-[[2-(4-fluoro-2-methoxy-phenyl)-5-(trifluoromethyl)benzoyl]amino]pyridine-2-carboxamide] was tested, and the IC50 was > 3000 nM.
In the case of `COc1cc(F)ccc1-c1ccc(C(F)(F)F)cc1C(=O)Nc1ccc(F)c(C(N)=O)c1` [Compound 253, N-(3-carbamoyl-4-fluoro-phenyl)-2-(4-fluoro-2-methoxy-phenyl)-5-(trifluoromethyl)benzamide], the IC50 is reported as > 3000 nM.
With `NC(=O)c1cc(NC(=O)c2ccc(C(F)(F)F)cc2-c2ccc(OC(F)(F)F)cc2)ccn1` [Compound 254, 4-[[2-[4-(trifluoromethoxy)phenyl]-4-(trifluoromethyl)benzoyl]amino]pyridine-2-carboxamide] the IC50 was > 3000 nM.
With `COc1cc(OC(F)(F)F)ccc1Oc1cc(C(F)(F)F)cc(Br)c1C(=O)Nc1ccnc(C(N)=O)c1` [Compound 255, 4-[[2-bromo-6-[2-methoxy-4-(trifluoromethoxy)phenoxy]-4-(trifluoromethyl)benzoyl]amino]pyridine-2-carboxamide] the IC50 was > 3000 nM.
With `NC(=O)c1cc(NC(=O)c2cc(Cl)ccc2Oc2ccc(OC(F)(F)F)cn2)ccc1F` [Compound 256, 5-[[5-chloro-2-[[5-(trifluoromethoxy)-2-pyridyl]oxy]benzoyl]amino]-2-fluoro-benzamide] the IC50 was > 3000 nM.
`COc1cc(OC(F)(F)F)ccc1Oc1ccc(C2CCC2)c(C)c1C(=O)Nc1ccnc(C(N)=O)c1` [Compound 257, 4-[[3-cyclobutyl-6-[2-methoxy-4-(trifluoromethoxy)phenoxy]-2-methyl-benzoyl]amino]pyridine-2-carboxamide] gave an IC50 of 8 nM.
In the case of `COc1c(C(F)(F)F)ccc(Oc2cccc(C3CCCCC3)c2)c1C(=O)Nc1ccnc(C(N)=O)c1` [Compound 258, 4-[[6-(3-cyclohexylphenoxy)-2-methoxy-3-(trifluoromethyl)benzoyl]amino]pyridine-2-carboxamide], the IC50 is reported as > 3000 nM.
For `COc1cc(OC(F)(F)F)ccc1Oc1ccc(F)c(F)c1C(=O)Nc1ccnc(C(N)=O)c1` [Compound 259, 4-[[2,3-difluoro-6-[2-methoxy-4-(trifluoromethoxy)phenoxy]benzoyl]amino]pyridine-2-carboxamide], the IC50 was 59 nM.
Work on `COc1cc(OC(F)(F)F)ccc1Oc1ccc(F)c(F)c1C(=O)Nc1cc(C(N)=O)ncc1C` [Compound 260, 4-[[2,3-difluoro-6-[2-methoxy-4-(trifluoromethoxy)phenoxy]benzoyl]amino]-5-methyl-pyridine-2-carboxamide] yielded an IC50 of 66 nM.
With `COc1cc(OC(F)(F)F)ccc1Oc1ccc(Cl)c(C)c1C(=O)Nc1ccnc(C(N)=O)c1` [Compound 261, 4-[[3-chloro-6-[2-methoxy-4-(trifluoromethoxy)phenoxy]-2-methyl-benzoyl]amino]pyridine-2-carboxamide] the IC50 was 8 nM.
Work on `COc1cc(OC(F)(F)F)ccc1Oc1cc(F)c(F)c(F)c1C(=O)Nc1cnc(C(N)=O)nc1` [Compound 262, 5-[[2,3,4-trifluoro-6-[2-methoxy-4-(trifluoromethoxy)phenoxy]benzoyl]amino]pyrimidine-2-carboxamide] yielded an IC50 of 50 nM.
`COc1cc(OC(F)(F)F)ccc1Oc1cc(OC)c(F)c(F)c1C(=O)Nc1ccnc(C(N)=O)c1` [Compound 263, 4-[[2,3-difluoro-4-methoxy-6-[2-methoxy-4-(trifluoromethoxy)phenoxy]benzoyl]amino]pyridine-2-carboxamide] showed an IC50 of 20 nM.
For `COc1cc(OC(F)(F)F)ccc1Oc1cc(C2CC2)c(F)c(C)c1C(=O)Nc1ccnc(C(N)=O)c1` [Compound 264, 4-[[4-cyclopropyl-3-fluoro-6-[2-methoxy-4-(trifluoromethoxy)phenoxy]-2-methyl-benzoyl]amino]pyridine-2-carboxamide], the IC50 was 52 nM.
`COc1cc(OC(F)(F)F)ccc1Oc1cc(OC)c(Cl)c(C)c1C(=O)Nc1ccnc(C(N)=O)c1` [Compound 265, 4-[[3-chloro-4-methoxy-6-[2-methoxy-4-(trifluoromethoxy)phenoxy]-2-methyl-benzoyl]amino]pyridine-2-carboxamide] was tested, and the IC50 was 35 nM.
